In patent publication US6605595B1, “Avermectin derivatives” (The Kitasato Institute, priority 1999, dated 2003):

What was measured:
Assay type in all cases: in vivo
[1] = tested on: Artemia salina; test: Insecticidal model activity against Artemia salina (brine shrimp), 96 well microplate (MIC); details: 20° C., observed after 24 and 48 hours
Text: (§1) As model insects for simple determination of antiparasitic and insecticidal activities, those insects are desired which can be easily obtained and bred in laboratories, and have no pathogenicity to a human. Caenorhabditis elegans, an unparasitic eelworm widely used in experiments of genetics, was used as a typical steam worm, and Artemia salina used as feed for tropical fish and named Brine shrimp, was used instead of insects.
To a buffer for Artemia salina (obtained by dissolving 0.24% of Tris, 2.57% of sodium chloride, 0.47% of magnesium chloride, 0.07% of potassium chloride, 0.02% of sodium carbonate, 0.64% of magnesium sulfate and 0.11% of calcium chloride in distilled water and adjusting the pH to 7.1 with hydrochloric acid), dried eggs of Artemia salina [Tetra Brine Shrimp Eggs, Warner Lambert Co.] were added. The noprius larvae 1 or 2 days after hatching were used for the experiments.
(§2) Each well of a 96 well microplate was filled with the solution of the test compound (methanol as a solvent), and the solvent was removed using a vacuum pump, then 250 μl of the assay medium was added to each wells (the assay medium was prepared by dissolving 7.5 mM sodium hydrogencarbonate, 7.5 mM potassium chloride, 7.5 mM calcium chloride dihydrate and 7.5 mM magnesium sulfate heptahydrate in distilled water and adding 0.01% of lecithin thereto), and then the microplate was shaken using a microplate mixer for 15 minutes. To each well, a few individuals of Caenorhabditis elegans were added by softly rubbing the surface of the agar using a toothpick, or a few individuals of Artemia salina were added together with 50 μl of the buffer. The microplate was incubated at 20° C., and then the insects were observed after 24 and 48 hours under a microscope (magnification of 40×). The results were compared to those obtained without addition of the test compound, and evaluated by 4 grades.
(§3) The evaluation results were shown by indications of 4 grades from 0 to 3.
(§4) 1: A little week movements
(§5) Of the 4 grades, Indications 3 and 2 were judged as effective, and Indications 1 and 0 as ineffective. In Table 9, the values for each compound are minimum inhibitory concentrations (MIC) which were required to give Indication 2 (or 3) for Caenorhabditis elegans or Artemia salina. In Table 9, Caenorhabditis elegans and Artemia salina are abbreviated as C.E. and A.S., respectively.

[2] = tested on: Caenorhabditis elegans; test: Antiparasitic activity against Caenorhabditis elegans, 96 well microplate (MIC); details: 20° C., observed after 24 and 48 hours
Text: as §1
Escherichia. coli for the feed of Caenorhabditis elegans (mutant having uracil requirement) was inoculated in a seed medium for E. coli to which a small amount of uracil was added, and cultured with shaking at 27° C. for 1 day. A petri dish of 6 cm diameter was filled with 10 ml of an agar medium for eelworm proliferation, and the medium was solidified. Then 0.5 ml of the culture of E. coli was spread over the medium in the dish, and the dish was incubated at 37° C. to proliferate E. coli. A piece of the agar was collected with a platinum loop from a petri dish in which Caenorhabditis elegans successfully proliferated, and inoculated in petri dishes in which E. coli was proliferated. The petri dishes were incubated at 20° C. to proliferate Caenorhabditis elegans. Since the life of eelworm is about 2 weeks, subculture was carried out every once a week. The eelworms grown with spread on the surface of the petri dish after 3 to 5 days from subculture were used for the experiments.
The agar medium for eelworm proliferation was prepared by mixing the solutions in the following proportion: Solution A: 100 ml, Solution B: 0.1 ml, Solution C: 0.05 ml, Solution D: 0.1 ml and Solution E: 2.5 ml (without pH adjustment), and dispensing each 10 ml portion into petri dishes of 60×15 mm.
In distilled water, 2.0% of bact-trypton (DIFCO Co.), 0.55% of sodium chloride and 0.001% of uracil (SIGMA Co., pH 7.4) were dissolved, and the solution was sterilized in an autoclave at 121° C. for 20 minutes.
as §2, §3, §4, §5

[3] = tested on: Adult Ctenocephalides felis; test: Test on cat fleas / oral absorption; details: after 24 hours
Protocol: Test on cat fleas/oral absorption
Test animals: Adult Ctenocephalides felis
Solvent: Dimethylsulfoxide (DMSO)
20 μl of this formulation are added to 4 ml of citrated cow's blood and stirred.
20 starved adult fleas (of “Georgi” species of Ctenocephalides felis) are introduced into a chamber (of a diameter of 5 cm) which is sealed with gauze at the top and bottom. A metal cylinder, whose base is sealed with parafilm, is placed on the chamber. […] Whereas the blood is heated to 37° C. a temperature of 25° C. is adjusted in the region of the flea chambers. Controls are mixed with the same volume of DMSO without the addition of any of the compounds. The test are repeated three times.
After 24 hours the mortality is determined in %.

[4] = 100 ppm in citrated cow's blood

CCC(C)C1OC2(C=CC1C)CC1CC(CC=C(C)C(OC3CC(OC)C(OC4CC(OC)C(=CC=NO)C(C)O4)C(C)O3)C(C)C=CC=C3COC4C(O)C(C)=CC(C(=O)O1)C34O)O2 (single isomer, unassigned) [Compound 10]
A.S. minimum inhibitory concentration (MIC) required to give Indication 2 (or 3) [1]: 0.002 µg/mL
C.E. minimum inhibitory concentration (MIC) required to give Indication 2 (or 3) [2]: 0.01 µg/mL

CCC(C)C1OC2(C=CC1C)CC1CC(CC=C(C)C(OC3CC(OC)C(OC4CC(OC)C(=CC=NOC)C(C)O4)C(C)O3)C(C)C=CC=C3COC4C(O)C(C)=CC(C(=O)O1)C34O)O2 (single isomer, unassigned) [Compound 13]
A.S. minimum inhibitory concentration (MIC) required to give Indication 2 (or 3) [1]: 0.002 µg/mL
C.E. minimum inhibitory concentration (MIC) required to give Indication 2 (or 3) [2]: 0.01 µg/mL

CCOC(=O)C=C1C(C)OC(OC2C(C)OC(OC3C(C)=CCC4CC(CC5(C=CC(C)C(C(C)CC)O5)O4)OC(=O)C4C=C(C)C(O[Si](C)(C)C(C)(C)C)C5OCC(=CC=CC3C)C45O)CC2OC)CC1OC (stereo not drawn) [Compound 1]
A.S. minimum inhibitory concentration (MIC) required to give Indication 2 (or 3) [1]: 100 µg/mL
C.E. minimum inhibitory concentration (MIC) required to give Indication 2 (or 3) [2]: 100 µg/mL

CCC(C)C1OC2(C=CC1C)CC1CC(CC=C(C)C(OC3CC(OC)C(OC4CC(OC)C(=CCOC(=O)C5CCCN5C(=O)OC(C)(C)C)C(C)O4)C(C)O3)C(C)C=CC=C3COC4C(O)C(C)=CC(C(=O)O1)C34O)O2 (stereo not drawn) [Compound 30]
A.S. minimum inhibitory concentration (MIC) required to give Indication 2 (or 3) [1]: 0.01 µg/mL
C.E. minimum inhibitory concentration (MIC) required to give Indication 2 (or 3) [2]: 0.05 µg/mL

C=CCOC(=O)C=C1C(C)OC(OC2C(C)OC(OC3C(C)=CCC4CC(CC5(C=CC(C)C(C(C)CC)O5)O4)OC(=O)C4C=C(C)C(O)C5OCC(=CC=CC3C)C45O)CC2OC)CC1OC (stereo not drawn) [Compound 20]
A.S. minimum inhibitory concentration (MIC) required to give Indication 2 (or 3) [1]: 0.002 µg/mL
C.E. minimum inhibitory concentration (MIC) required to give Indication 2 (or 3) [2]: 0.01 µg/mL

CCC(C)C1OC2(C=CC1C)CC1CC(CC=C(C)C(OC3CC(OC)C(OC4CC(OC)C(=CCOC(=O)c5ccc(Cl)nc5)C(C)O4)C(C)O3)C(C)C=CC=C3COC4C(O)C(C)=CC(C(=O)O1)C34O)O2 (stereo not drawn) [Compound 34]
A.S. minimum inhibitory concentration (MIC) required to give Indication 2 (or 3) [1]: 0.002 µg/mL
C.E. minimum inhibitory concentration (MIC) required to give Indication 2 (or 3) [2]: 0.002 µg/mL

CCC(C)C1OC2(C=CC1C)CC1CC(CC=C(C)C(OC3CC(OC)C(OC4CC(OC)C(=CCOC(=O)c5ccncc5)C(C)O4)C(C)O3)C(C)C=CC=C3COC4C(O[Si](C)(C)C(C)(C)C)C(C)=CC(C(=O)O1)C34O)O2 (stereo not drawn) [Compound 17]
A.S. minimum inhibitory concentration (MIC) required to give Indication 2 (or 3) [1]: 100 µg/mL
C.E. minimum inhibitory concentration (MIC) required to give Indication 2 (or 3) [2]: 100 µg/mL

CCC(C)C1OC2(C=CC1C)CC1CC(CC=C(C)C(OC3CC(OC)C(OC4CC(OC)C(=CC=NO)C(C)O4)C(C)O3)C(C)C=CC=C3COC4C(O)C(C)=CC(C(=O)O1)C34O)O2 (single isomer, unassigned) [Compound 9]
A.S. minimum inhibitory concentration (MIC) required to give Indication 2 (or 3) [1]: 0.002 µg/mL
C.E. minimum inhibitory concentration (MIC) required to give Indication 2 (or 3) [2]: 0.01 µg/mL

CCC(C)C1OC2(C=CC1C)CC1CC(CC=C(C)C(OC3CC(OC)C(OC4CC(OC)C(=CC=O)C(C)O4)C(C)O3)C(C)C=CC=C3COC4C(O)C(C)=CC(C(=O)O1)C34O)O2 (stereo not drawn) [Compound 8]
A.S. minimum inhibitory concentration (MIC) required to give Indication 2 (or 3) [1]: 0.01 µg/mL
C.E. minimum inhibitory concentration (MIC) required to give Indication 2 (or 3) [2]: 0.01 µg/mL

CCC(C)C1OC2(C=CC1C)CC1CC(CC=C(C)C(OC3CC(OC)C(OC4CC(OC)C(=CC(=O)OC)C(C)O4)C(C)O3)C(C)C=CC=C3COC4C(O[Si](C)(C)C(C)(C)C)C(C)=CC(C(=O)O1)C34O)O2 (stereo not drawn) [Compound 6]
A.S. minimum inhibitory concentration (MIC) required to give Indication 2 (or 3) [1]: ≧100 μg/ml
C.E. minimum inhibitory concentration (MIC) required to give Indication 2 (or 3) [2]: >100 µg/mL

CCC(C)C1OC2(C=CC1C)CC1CC(CC=C(C)C(OC3CC(OC)C(OC4CC(OC)C(=CCNC)C(C)O4)C(C)O3)C(C)C=CC=C3COC4C(O)C(C)=CC(C(=O)O1)C34O)O2 (stereo not drawn) [Compound 11]
A.S. minimum inhibitory concentration (MIC) required to give Indication 2 (or 3) [1]: 0.01 µg/mL
C.E. minimum inhibitory concentration (MIC) required to give Indication 2 (or 3) [2]: 0.05 µg/mL

CCC(C)C1OC2(C=CC1C)CC1CC(CC=C(C)C(OC3CC(OC)C(OC4CC(OC)C(=CCO)C(C)O4)C(C)O3)C(C)C=CC=C3COC4C(O)C(C)=CC(C(=O)O1)C34O)O2 (stereo not drawn) [Compound 4]
A.S. minimum inhibitory concentration (MIC) required to give Indication 2 (or 3) [1]: 0.01 µg/mL
mortality of fleas ([3]; 10 ppm in citrated cow's blood): 42%
mortality of fleas [3, 4]: 100%
C.E. minimum inhibitory concentration (MIC) required to give Indication 2 (or 3) [2]: 0.01 µg/mL

CCC(C)C1OC2(C=CC1C)CC1CC(CC=C(C)C(OC3CC(OC)C(OC4CC(OC)C(=CC=NNC(N)=O)C(C)O4)C(C)O3)C(C)C=CC=C3COC4C(O)C(C)=CC(C(=O)O1)C34O)O2 (stereo not drawn) [Compound 22]
A.S. minimum inhibitory concentration (MIC) required to give Indication 2 (or 3) [1]: 0.0005 µg/mL
C.E. minimum inhibitory concentration (MIC) required to give Indication 2 (or 3) [2]: 0.01 µg/mL

CCC(C)C1OC2(C=CC1C)CC1CC(CC=C(C)C(OC3CC(OC)C(OC4CC(OC)C(=CCO)C(C)O4)C(C)O3)C(C)C=CC=C3COC4C(O[Si](C)(C)C(C)(C)C)C(C)=CC(C(=O)O1)C34O)O2 (stereo not drawn) [Compound 3]
A.S. minimum inhibitory concentration (MIC) required to give Indication 2 (or 3) [1]: 20 µg/mL
C.E. minimum inhibitory concentration (MIC) required to give Indication 2 (or 3) [2]: 100 µg/mL

CCC(C)C1OC2(C=CC1C)CC1CC(CC=C(C)C(OC3CC(OC)C(OC4CC(OC)C(=CC=NOC)C(C)O4)C(C)O3)C(C)C=CC=C3COC4C(O)C(C)=CC(C(=O)O1)C34O)O2 (single isomer, unassigned) [Compound 12]
A.S. minimum inhibitory concentration (MIC) required to give Indication 2 (or 3) [1]: 0.01 µg/mL
C.E. minimum inhibitory concentration (MIC) required to give Indication 2 (or 3) [2]: 0.01 µg/mL

CCC(C)C1OC2(CC(=O)C1C)CC1CC(CC=C(C)C(OC3CC(OC)C(OC4CC(OC)C(=CC(=O)OC)C(C)O4)C(C)O3)C(C)C=CC=C3COC4C(O)C(C)=CC(C(=O)O1)C34O)O2 (stereo not drawn) [Compound 41]
A.S. minimum inhibitory concentration (MIC) required to give Indication 2 (or 3) [1]: 0.01 µg/mL
C.E. minimum inhibitory concentration (MIC) required to give Indication 2 (or 3) [2]: 0.01 µg/mL

CCC(C)C1OC2(C=CC1C)CC1CC(CC=C(C)C(OC3CC(OC)C(OC4CC(OC)C(=CCN)C(C)O4)C(C)O3)C(C)C=CC=C3COC4C(O[Si](C)(C)C(C)(C)C)C(C)=CC(C(=O)O1)C34O)O2 (stereo not drawn) [Compound 14]
A.S. minimum inhibitory concentration (MIC) required to give Indication 2 (or 3) [1]: 5 µg/mL
C.E. minimum inhibitory concentration (MIC) required to give Indication 2 (or 3) [2]: 100 µg/mL

CCC(C)C1OC2(C=CC1C)CC1CC(CC=C(C)C(OC3CC(OC)C(OC4CC(OC)C(=CC=O)C(C)O4)C(C)O3)C(C)C=CC=C3COC4C(O[Si](C)(C)C(C)(C)C)C(C)=CC(C(=O)O1)C34O)O2 (stereo not drawn) [Compound 5]
A.S. minimum inhibitory concentration (MIC) required to give Indication 2 (or 3) [1]: 100 µg/mL
C.E. minimum inhibitory concentration (MIC) required to give Indication 2 (or 3) [2]: 100 µg/mL

CCC(C)C1OC2(C=CC1C)CC1CC(CC=C(C)C(OC3CC(OC)C(OC4CC(OC)C(=CC(=O)O)C(C)O4)C(C)O3)C(C)C=CC=C3COC4C(O)C(C)=CC(C(=O)O1)C34O)O2 (stereo not drawn) [Compound 25]
A.S. minimum inhibitory concentration (MIC) required to give Indication 2 (or 3) [1]: 0.01 µg/mL
mortality of fleas ([3]; 10 ppm in citrated cow's blood): 69%
mortality of fleas [3, 4]: 100%
C.E. minimum inhibitory concentration (MIC) required to give Indication 2 (or 3) [2]: 0.05 µg/mL
